According to EPA's aquatic toxicity sets:

System: Pimephales promelas
Experiment: 96 h LC50 (-log10 mol/L); higher = more toxic

Point of comparison: `Fc1ccc(Oc2ccc(F)cc2)cc1`, “96 h LC50 (-log10 mol/L)” value 5.26. Against it:
- CC(C)(C)c1ccc(CSc2cnn(C(C)(C)C)c(=O)c2Cl)cc1 — higher, 8.2
- CCN(CCO)c1cccc(C)c1 — lower, 3.53
- ClC1(Cl)C2(Cl)C3(Cl)C4(Cl)C(Cl)(Cl)C5(Cl)C3(Cl)C1(Cl)C5(Cl)C24Cl (stereo not given) — lower, 3.62
- C=CC(=C)C — lower, 2.95
- CCC(C)C=O (stereo not given) — lower, 3.94
- CCCCOc1ccccc1 — lower, 4.42
- Nc1ccc([N+](=O)[O-])cc1Cl — lower, 3.93
- C#CC(O)(c1ccccc1)c1ccccc1 — lower, 4.27
- CC(=O)Br — lower, 3.48
- CCCCN(CC)c1c([N+](=O)[O-])cc(C(F)(F)F)cc1[N+](=O)[O-] — higher, 6.53
- O=C1C2CC3CC(C2)CC1C3 — lower, 3.39
- C=C(C)C(=O)OCCOCC — lower, 3.76
- O=C(Cl)c1ccccc1 — lower, 3.61
- O=[N+]([O-])c1ccc(O)cc1C(F)(F)F — lower, 4.51
- O=C(O)c1c(Cl)ccc(Cl)c1Cl — lower, 4.42
- BrCCCBr — lower, 5.05
- COP(O)(=S)OC — lower, 3.52
- OC(c1ccc(Cl)cc1)(c1ccc(Cl)cc1)C(Cl)(Cl)Cl — higher, 5.86
- CC1(C)CCC(C)(C)O1 — lower, 2.88
- C=CCC1=C(C)[C@@H](OC(=O)[C@@H]2[C@@H](C=C(C)C)C2(C)C)CC1=O — higher, 6.67
- CCN(CC)N=O — lower, 2.12
- C=C(CCl)CCl — higher, 5.82
- ClCCCCCl — lower, 3.39
- O=Cc1cccc(Oc2ccc(Cl)c(Cl)c2)c1 — higher, 5.95
- O=C1c2ccccc2C(=O)N1SC(Cl)(Cl)Cl — higher, 6.21
- O=S(Cc1ccccc1)Cc1ccccc1 — lower, 3.46
- CC(C)C(C(=O)OC(C#N)c1cccc(Oc2ccccc2)c1)c1ccc(OC(F)F)cc1 (stereo not given) — higher, 8.98
- O=[N+]([O-])c1ccc(/C=C/c2cccc(CO)n2)o1 — higher, 5.48
- ClC1C(Cl)C(Cl)C(Cl)C(Cl)C1Cl (stereo not given) — higher, 6.61
- BrCC1CCCCO1 (stereo not given) — lower, 2.94
- ClC1=C(Cl)[C@]2(Cl)C3C(Cl)C(Cl)CC3[C@@]1(Cl)C2(Cl)Cl (stereo not given in full) — higher, 6.82
- CN(C)N=O — lower, 1.9
- CCOC(=O)/C=C\C(=O)OCC — lower, 3.98
- CCOC(=O)C(C)N(C(=O)c1ccccc1)c1ccc(Cl)c(Cl)c1 (stereo not given) — higher, 5.81
- C#CCN(CC#C)CC#C — lower, 2.65
- S=c1[nH]c2cc(Cl)ccc2s1 — lower, 4.8
- C#CC(C)(O)c1ccccc1 (stereo not given) — lower, 3.11
- O=C(Oc1ccccc1)c1ccccc1O — within 0.2 log units, 5.28
- COC(=O)c1ccc(C(=O)OC)c(N)c1 — lower, 4.37
- Cc1nnc(N)nc1C — lower, 2.12
- CC(C)(C)SSC(C)(C)C — within 0.2 log units, 5.12
- CCCCCCCCOC(=O)C(C)O (stereo not given) — lower, 3.93
- CC(=O)/C=C/C1=C(C)CCCC1(C)C — lower, 4.58
- CCOC(CN(C)CC(OCC)OCC)OCC — lower, 2.62
- ClC1=C(Cl)C2(Cl)C3C(Cl)C=CC3C1(Cl)C2(Cl)Cl (stereo not given) — higher, 6.75
- CC(C)Oc1cccc(NC(=O)c2ccccc2C(F)(F)F)c1 — lower, 4.83
- C=C(C)C(=O)OCC1CCCO1 (stereo not given) — lower, 3.69
- C=C1[C@H]2CC[C@@H]3[C@H]2C(C)(C)CCC[C@]13C — lower, 4.3
- Cc1cc(O)c([N+](=O)[O-])cc1[N+](=O)[O-] — lower, 4.79
- COP(=O)(OC)Oc1nc(Cl)c(Cl)cc1Cl — higher, 8.16
- COc1ccc(C=O)c(OC)c1 — lower, 3.92
- CC(Cl)(Cl)C(=O)O — lower, 2.69
- CCCSP(=O)(OCC)Oc1ccc(Br)cc1Cl (stereo not given) — higher, 6.64
- CCN(CC)c1ccc(C=O)cc1 — lower, 3.87
- CC=CC=CC — lower, 3.61
- c1ccc2c(c1)CCO2 — lower, 3.17
- CC1=CC[C@@H]2C[C@H]1C2(C)C — higher, 5.69
- CCOP(=S)(OCC)Oc1nc(Cl)c(Cl)cc1Cl — higher, 6.36
- O=P(c1ccccc1)(c1ccccc1)c1ccccc1 — lower, 3.71
- CCOC(=O)CC(S)C(=O)OCC (stereo not given) — lower, 3.77
- O[C@H]1C[C@@H]2CC[C@H]1C2 — lower, 2.69
- C=CCNc1ccccc1 — lower, 3.57
- CCN(CC)CCCC(C)=O — lower, 2.67
- CCc1cccc(C)c1N(C(=O)CCl)C(C)COC (stereo not given) — lower, 4.54
- COC(=O)c1ccc(O)cc1O — lower, 3.6
- CCOP(=S)(OCC)SCCSCC — lower, 4.85
- Oc1ccccc1Cl — lower, 4.02
- O=C(O)CCCOc1ccc(Cl)cc1Cl — lower, 4.14
- O=C(O)C(Cl)(Cl)Cl — lower, 1.91
- COCOC — lower, 1.04
- CCCCN(C=O)CCCC — lower, 3.25
- COP(=O)(O)OC — lower, 3.85
- O=S(=O)([O-])c1ccc[n+](Cc2ccccc2)c1 — lower, 2.02
- COc1ccc(OC)c(C(=O)CBr)c1 — higher, 6.65
- CCOP(=O)(OCC)OP(=O)(OCC)OCC — within 0.2 log units, 5.35
- Oc1cc(Cl)c(Cl)cc1O — within 0.2 log units, 5.3
- CC(C)=CC1C(C(=O)OCc2ccc(C)cc2C)C1(C)C (stereo not given) — higher, 6.67
- CCCCCCC(C)N (stereo not given) — lower, 4.4
- C#CC(O)CCCCC (stereo not given) — higher, 5.49
- CC(N)CN (stereo not given) — lower, 1.82
- CCCSCCC — lower, 3.74
- CCOP(=S)(Oc1ccc([N+](=O)[O-])cc1)c1ccccc1 (stereo not given) — higher, 6.21
- Cc1cccc([N+](=O)[O-])c1N — lower, 3.8
- Clc1ccc(C(c2ccc(Cl)cc2)C(Cl)Cl)cc1 — lower, 4.86
- CCN(CC)C1CCCCC1 — lower, 3.86
- C=C(Cl)Cl — lower, 2.86
- Cc1c([N+](=O)[O-])ccc(N)c1[N+](=O)[O-] — lower, 4.25
- CC(Oc1cc(Cl)c(Cl)cc1Cl)C(=O)O (stereo not given) — lower, 4.2
- Nc1ccc(S(=O)(=O)O)cc1 — lower, 3.24
- Cc1cocn1 — lower, 1.78
- c1cc[n+]2c(c1)-c1cccc[n+]1CC2 — lower, 4.12
- CC(C)(C)CCN — lower, 2.23
- Brc1ccccc1Br — lower, 4.76
- Cl[C@@H]1CCCC[C@H]1Cl — lower, 3.92
- CC(=O)Cl — lower, 3.27
- C1=C[C@H]2CC[C@@H]1C2 — lower, 3.97
- OCCOCCO — lower, 0.15
- CCOC(=O)C(C)Oc1ccc(Oc2nc3ccc(Cl)cc3o2)cc1 (stereo not given) — lower, 4.71
- O=C(CCl)c1ccc(Cl)cc1 — lower, 4.21
- O=[N+]([O-])C(CO)(CO)CO — lower, 2.73
- ClCc1ccc(CCl)cc1 — higher, 6.65
- CC(=O)O — lower, 2.86
- NCCCN1CCN(CCCN)CC1 — lower, 1.81
- CC(C)=CCC/C(C)=C/CO — lower, 4.59
- Cc1c([N+](=O)[O-])cc(N)cc1[N+](=O)[O-] — lower, 4.46
- CC(=O)Nc1ccccc1O — lower, 3.66
- O[C@@H]1CCCC[C@H]1c1ccccc1 — lower, 3.6
- CNC(=O)Oc1ccc(N(C)C)c(C)c1 — lower, 5.03
- CC(C)=C1C=C2CC[C@@H]3[C@](C)(CCC[C@@]3(C)C(=O)O)[C@H]2CC1 — within 0.2 log units, 5.31
- CCCCOCC(C)OC(=O)C(C)Oc1cc(Cl)c(Cl)cc1Cl (stereo not given) — lower, 4.73
- CN(C)N — lower, 3.88
- CC(C)CCCCCOC(=O)C(C)Oc1cc(Cl)c(Cl)cc1Cl (stereo not given) — lower, 4.24
- CCN(CC)c1c([N+](=O)[O-])cc(C(F)(F)F)c(N)c1[N+](=O)[O-] — within 0.2 log units, 5.39
- CCC(=O)c1ccc(N)cc1 — lower, 3.01
- CCCCCC(C)=O — lower, 2.94
- c1ccc2c(c1)CCC2 — lower, 3.93
- CC(C)C(C(=O)OC(C#N)c1cccc(Oc2ccccc2)c1)c1ccc(Cl)cc1 (stereo not given) — higher, 8.14
- CNC(=O)Oc1cccc2c1OC(C)(C)C2 — within 0.2 log units, 5.4
- CC1CNCC(C)O1 (stereo not given) — lower, 2.47
